Results as given in ChEMBL document CHEMBL4699404, “Arylsulfonyl histamine derivatives as powerful and selective alpha-glucosidase inhibitors” (RSC Med Chem, 2020).
Active and inactive are the calls of the source. The calls are words filed in the database; no cut-off is given here.

Assays:
Saccharomyces cerevisiae [1] = experiment: Inhibition of Saccharomyces cerevisiae alpha-glucosidase using p-nitrophenyl-alpha-o-D-glucopyranoside as substrate at 100 uM measured for 10 mins by microplate assay relative to control
[2] = target: Xanthine dehydrogenase/oxidase (Bos taurus, UniProt P80457); experiment: Inhibition of bovine milk xanthine oxidase assessed as reduction in uric acid formation at 3 uM using xanthine as substrate measured for 20 mins by microplate assay; conditions: cattle
Sequence of Xanthine dehydrogenase/oxidase (P80457 whole entry): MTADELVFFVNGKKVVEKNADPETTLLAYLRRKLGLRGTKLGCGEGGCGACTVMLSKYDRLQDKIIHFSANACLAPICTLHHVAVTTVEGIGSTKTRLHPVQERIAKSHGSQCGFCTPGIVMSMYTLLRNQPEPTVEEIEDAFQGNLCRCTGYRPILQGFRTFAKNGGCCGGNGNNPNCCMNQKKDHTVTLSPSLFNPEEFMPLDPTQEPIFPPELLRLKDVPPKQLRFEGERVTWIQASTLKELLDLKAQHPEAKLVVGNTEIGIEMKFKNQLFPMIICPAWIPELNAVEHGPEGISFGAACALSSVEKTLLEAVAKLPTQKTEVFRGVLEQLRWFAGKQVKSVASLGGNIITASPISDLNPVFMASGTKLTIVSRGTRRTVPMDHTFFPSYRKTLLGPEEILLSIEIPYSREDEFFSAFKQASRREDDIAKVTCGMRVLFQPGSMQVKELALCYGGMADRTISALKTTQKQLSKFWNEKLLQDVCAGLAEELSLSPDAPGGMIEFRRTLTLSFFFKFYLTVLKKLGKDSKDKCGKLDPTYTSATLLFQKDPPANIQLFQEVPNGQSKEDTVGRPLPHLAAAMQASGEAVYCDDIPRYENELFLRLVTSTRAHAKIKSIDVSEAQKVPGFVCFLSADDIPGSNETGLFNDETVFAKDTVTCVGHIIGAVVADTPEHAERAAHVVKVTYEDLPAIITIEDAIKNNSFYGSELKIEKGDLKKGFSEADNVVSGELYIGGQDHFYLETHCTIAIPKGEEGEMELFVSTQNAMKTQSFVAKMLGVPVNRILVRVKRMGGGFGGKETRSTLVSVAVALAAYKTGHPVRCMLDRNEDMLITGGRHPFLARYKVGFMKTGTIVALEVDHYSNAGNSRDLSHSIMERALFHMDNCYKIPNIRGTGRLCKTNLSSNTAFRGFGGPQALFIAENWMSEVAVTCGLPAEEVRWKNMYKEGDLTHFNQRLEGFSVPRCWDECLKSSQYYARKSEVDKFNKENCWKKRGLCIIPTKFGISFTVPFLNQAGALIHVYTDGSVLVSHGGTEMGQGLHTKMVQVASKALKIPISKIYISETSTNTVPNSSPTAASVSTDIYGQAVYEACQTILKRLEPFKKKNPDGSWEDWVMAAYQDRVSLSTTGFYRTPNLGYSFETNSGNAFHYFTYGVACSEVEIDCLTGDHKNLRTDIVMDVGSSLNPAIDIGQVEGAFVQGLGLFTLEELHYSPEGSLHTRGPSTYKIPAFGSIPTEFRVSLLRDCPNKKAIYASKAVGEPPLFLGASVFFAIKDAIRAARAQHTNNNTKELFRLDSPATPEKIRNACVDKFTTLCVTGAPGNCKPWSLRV

[3] = Toxicity against C57BL/6 mouse assessed as behavioural changes at 22.5 mg/kg, po administered via gavage; assay type: organism-based; conditions: in vivo
[4] = Toxicity against C57BL/6 mouse assessed as locomotory changes at 22.5 mg/kg, po administered via gavage; assay type: organism-based; conditions: in vivo
Prunus dulcis = experiment: Inhibition of almonds beta-glucosidase using p-nitrophenyl-beta-o-D-glucopyranoside as substrate at 65 uM measured for 10 mins
[5] = Toxicity against C57BL/6 mouse assessed as changes in water consumption at 22.5 mg/kg, po administered via gavage measured for 24 hrs; assay type: organism-based; conditions: in vivo
[6] = Toxicity against C57BL/6 mouse assessed as general body position changes at 22.5 mg/kg, po administered via gavage; assay type: organism-based; conditions: in vivo
Saccharomyces cerevisiae [7] = experiment: Potency index, ratio of acarbose Ki to test compound Ki for competitive inhibition of Saccharomyces cerevisiae alpha-glucosidase using varying levels of p-nitrophenyl-alpha-D-glucopyranoside as substrate by Lineweaver-Burk plot analysis
Saccharomyces cerevisiae [8] = experiment: Inhibition of Saccharomyces cerevisiae alpha-glucosidase using p-nitrophenyl-alpha-o-D-glucopyranoside as substrate at 122 uM measured for 10 mins by microplate assay relative to control
[9] = target: Acetylcholinesterase (Electrophorus electricus) (UniProt O42275); experiment: Inhibition of electric eel AChE using acetylthiocholine iodide as substrate at 1.5 uM measured for 15 mins by Ellman's method relative to control
Sequence of Acetylcholinesterase (Electrophorus electricus) (O42275 24-633 limits assumed): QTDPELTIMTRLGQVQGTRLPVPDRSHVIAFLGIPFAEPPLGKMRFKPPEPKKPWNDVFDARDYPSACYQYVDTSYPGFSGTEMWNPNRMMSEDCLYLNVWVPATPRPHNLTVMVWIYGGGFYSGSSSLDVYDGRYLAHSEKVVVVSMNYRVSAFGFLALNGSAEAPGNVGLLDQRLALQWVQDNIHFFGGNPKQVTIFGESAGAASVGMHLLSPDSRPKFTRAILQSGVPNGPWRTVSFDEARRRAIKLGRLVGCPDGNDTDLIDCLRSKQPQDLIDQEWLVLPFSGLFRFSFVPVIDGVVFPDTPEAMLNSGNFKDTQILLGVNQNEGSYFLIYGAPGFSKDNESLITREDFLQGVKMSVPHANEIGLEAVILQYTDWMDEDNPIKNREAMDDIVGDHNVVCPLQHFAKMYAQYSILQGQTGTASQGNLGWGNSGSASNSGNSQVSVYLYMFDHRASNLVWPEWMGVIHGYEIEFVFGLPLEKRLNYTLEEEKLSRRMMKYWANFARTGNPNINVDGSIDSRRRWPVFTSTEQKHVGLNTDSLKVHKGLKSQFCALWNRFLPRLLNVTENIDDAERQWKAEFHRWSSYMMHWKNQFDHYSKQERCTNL

Mus musculus [10] = experiment: Hypoglycemic activity in C57BL/6 mouse assessed as reduction in postprandial blood glucose level at 22.5 mg/kg, po administered via gavage measured after 15 to 90 mins by glucometric analysis; assay type: functional, organism-based; conditions: time min 15-90
[11] = Toxicity against C57BL/6 mouse assessed as changes in food consumption at 22.5 mg/kg, po administered via gavage measured for 24 hrs; assay type: organism-based; conditions: in vivo
Saccharomyces cerevisiae [12] = experiment: Reversible inhibition of Saccharomyces cerevisiae alpha-glucosidase assessed as recovery of enzyme activity preincubated with enzyme for 30 mins followed by 100-fold dilution and challenge with substrate by jump dilution experiment based microplate assay; design: scale not given: the % may be the effect or the level left
Mus musculus [13] = experiment: Hypoglycemic activity in C57BL/6 mouse assessed as reduction in sucrose-induced postprandial blood glucose level at 22.5 mg/kg, po administered via gavage and measured after 15 to 90 mins by oral sucrose loading test; assay type: functional, organism-based; conditions: time min 15-90
Kluyveromyces lactis = experiment: Inhibition of Kluyveromyces lactis beta-galactosidase using o-nitrophenyl-beta-o-D-galactopyranoside as substrate at 100 to 2500 uM measured for 10 mins; conditions: dose microM 100-2500, time 10.0 min
[14] = target: Mushroom tyrosinase (Agaricus bisporus) (UniProt O42713+Q00024+C7FF04+C7FF05); experiment: Inhibition of mushroom tyrosinase assessed as reduction in dopachrome formation at 40 uM using L-tyrosine as substrate measured for 30 mins by microplate assay
[15] = Inhibition of porcine pancreatic alpha-amylase assessed as reduction in conversion of starch to glucose using starch as substrate at 200 uM incubated for 15 mins by starch-iodine method; design: species or system Sus scrofa; conditions: pig, 0.25 h
[16] = Inhibition of Kluyveromyces lactis beta-galactosidase using o-nitrophenyl-beta-o-D-galactopyranoside as substrate measured for 10 mins
[17] = Inhibition of almonds beta-glucosidase using p-nitrophenyl-beta-o-D-glucopyranoside as substrate measured for 10 mins; design: species or system Prunus dulcis

O=S(=O)(NCCc1cn(S(=O)(=O)c2cc(F)c(F)c(F)c2)cn1)c1cc(F)c(F)c(F)c1
inhibition (Saccharomyces cerevisiae [1]): > 50%

O=S(=O)(NCCc1cn(S(=O)(=O)c2ccc(C(F)(F)F)cc2)cn1)c1ccc(C(F)(F)F)cc1
inhibition (INH) [2]: Not Active
Activity [3]: Non-Toxic
Activity [4]: Non-Toxic
inhibition (Saccharomyces cerevisiae [1]): > 50%
inhibition (Prunus dulcis): inactive
Activity [5]: Non-Toxic
Activity [6]: Non-Toxic
Ratio Ki (Saccharomyces cerevisiae [7]): 7
inhibition (Saccharomyces cerevisiae [8]): 79.9%
inhibition [9]: 2.31%
Activity (Mus musculus [10]): Active
Activity [11]: Non-Toxic
Activity (Saccharomyces cerevisiae [12]): 97%
Activity (Mus musculus [13]): Active
inhibition (Kluyveromyces lactis): inactive
inhibition [14]: inactive
inhibition (INH) [15]: Not Active

O=S(=O)(NCCc1c[nH]cn1)c1ccc(C(F)(F)F)cc1
inhibition (Saccharomyces cerevisiae [1]): < 50%

O=S(=O)(NCCc1cn(S(=O)(=O)c2ccccc2)cn1)c1ccccc1
inhibition (Saccharomyces cerevisiae [1]): > 50%

O=S(=O)(NCCc1c[nH]cn1)c1ccc(F)cc1C(F)(F)F
inhibition (Saccharomyces cerevisiae [1]): < 50%

O=S(=O)(NCCc1c[nH]cn1)c1ccccc1
inhibition (Saccharomyces cerevisiae [1]): < 50%

O=S(=O)(NCCc1c[nH]cn1)c1ccc(F)cc1
inhibition (Saccharomyces cerevisiae [1]): < 50%

O=S(=O)(NCCc1cn(S(=O)(=O)c2ccc(F)cc2Cl)cn1)c1ccc(F)cc1Cl
inhibition (Saccharomyces cerevisiae [1]): > 50%

Cc1ccc(S(=O)(=O)NCCc2cn(S(=O)(=O)c3ccc(C)cc3)cn2)cc1
inhibition (Saccharomyces cerevisiae [1]): > 50%

O=S(=O)(NCCc1cn(S(=O)(=O)c2ccc(F)cc2)cn1)c1ccc(F)cc1
inhibition (Saccharomyces cerevisiae [1]): > 50%

O=S(=O)(NCCc1cn(S(=O)(=O)c2ccc(F)cc2C(F)(F)F)cn1)c1ccc(F)cc1C(F)(F)F
inhibition (Saccharomyces cerevisiae [1]): > 50%

Cc1ccc(S(=O)(=O)NCCc2c[nH]cn2)cc1
inhibition (Saccharomyces cerevisiae [1]): < 50%

Cc1ccc(F)c(S(=O)(=O)NCCc2cn(S(=O)(=O)c3cc(C)ccc3F)cn2)c1
inhibition (INH) [2]: Not Active
inhibition (Saccharomyces cerevisiae [1]): > 50%
inhibition (Prunus dulcis): inactive
inhibition (Saccharomyces cerevisiae [8]): 72.2%
inhibition [9]: 7.14%
inhibition (Kluyveromyces lactis): inactive
inhibition [14]: inactive
inhibition (INH) [15]: Not Active

OC[C@H]1NC[C@H](O)[C@@H](O)[C@H]1O
IC50 [16]: 90 µM

OC[C@H]1NC[C@H](O)[C@@H](O)[C@@H]1O [DUVOGLUSTAT]
IC50 [17]: 65.2 µM

O=S(=O)(NCCc1cn(S(=O)(=O)c2c(F)c(F)c(F)c(F)c2F)cn1)c1c(F)c(F)c(F)c(F)c1F
inhibition (Saccharomyces cerevisiae [1]): > 50%

Cc1ccc(F)c(S(=O)(=O)NCCc2c[nH]cn2)c1
inhibition (Saccharomyces cerevisiae [1]): < 50%

O=S(=O)(NCCc1c[nH]cn1)c1cc(F)c(F)c(F)c1
inhibition (Saccharomyces cerevisiae [1]): < 50%

COc1ccc(S(=O)(=O)NCCc2c[nH]cn2)cc1F
inhibition (Saccharomyces cerevisiae [1]): < 50%

COc1ccc(S(=O)(=O)NCCc2cn(S(=O)(=O)c3ccc(OC)c(F)c3)cn2)cc1F
inhibition (Saccharomyces cerevisiae [1]): > 50%
